The target in data set [1] is recombinant SARS-CoV-1 nucleocapsid protein (Severe acute respiratory syndrome coronavirus, UniProt P59595). Briefly: biochemical. The data set is classed as binding.
Data set [2] can be described thus: in vitro. Particulars: human.
Data set [3] concerns MRC-5 cells. Particulars: 72 h; 0.003-100 µM.
For data set [4], the target named is recombinant SARS-CoV-2 nucleocapsid protein (full-length NP, aa 1–419) (Severe acute respiratory syndrome coronavirus 2, UniProt P0DTC9). The data set can be described thus: biochemical. Format: binding.
For data set [5], the system named is A549 cells. Particulars: 72 h; 0.003-100 µM.

SMILES strings stand for the structures. Several values for one entry are separate records, joined by “and”; a condition that tells them apart may be missing. Identical values can stand only once.

Chain of recombinant SARS-CoV-1 nucleocapsid protein (P59595 whole entry, looked up): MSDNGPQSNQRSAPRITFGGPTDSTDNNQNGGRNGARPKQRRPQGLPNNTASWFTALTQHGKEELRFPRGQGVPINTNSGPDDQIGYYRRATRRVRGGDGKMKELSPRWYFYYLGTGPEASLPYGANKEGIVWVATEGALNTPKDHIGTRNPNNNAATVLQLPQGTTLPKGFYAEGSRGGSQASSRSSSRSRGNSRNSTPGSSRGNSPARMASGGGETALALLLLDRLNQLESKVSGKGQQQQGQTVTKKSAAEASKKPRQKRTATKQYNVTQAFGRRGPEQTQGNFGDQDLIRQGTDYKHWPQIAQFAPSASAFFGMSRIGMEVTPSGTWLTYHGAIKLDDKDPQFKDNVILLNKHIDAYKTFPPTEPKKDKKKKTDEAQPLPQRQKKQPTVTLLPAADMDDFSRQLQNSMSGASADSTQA

Take `Cc1ccc2ccccc2c1COc1ccc2c(C)c(CC(=O)N3CCC4(O)CCCCC4C3)c(=O)oc2c1C` (stereo not drawn) [Compound 1, 3-[2-(4a-hydroxy-decahydroisoquinolin-2-yl)-2-oxoethyl]-4,8-dimethyl-7-[(2-methylnaphthalen-1-yl)methoxy]-2H-chromen-2-one]: in data set [1], the Kd came to 14.6 ± 0.44 µM. Also, in data set [2], it took 51 ± 8.13 µM to reach half-maximal inhibition (IC50). In addition, the “IC50 (cytotoxicity)” value in data set [3] is reported as “no toxicity”.
In the case of `Cc1c(CC(=O)N2CCC3(O)CCCCC3C2)c(=O)oc2cc3occ(-c4ccc5ccccc5c4)c3cc12` (stereo not drawn) [Compound 2, 6-[2-(4a-hydroxy-decahydroisoquinolin-2-yl)-2-oxoethyl]-5-methyl-3-(naphthalen-2-yl)-7H-furo [3,2-g]chromen-7-one], in data set [4], the Kd stood at 22.8 ± 1.52 µM.
For the compound `Cc1c(CC(=O)N2CCC3(O)CCCCC3C2)c(=O)oc2c(C)c3occ(-c4ccc5ccccc5c4)c3cc12` (stereo not drawn) [Compound 4, 6-[2-(4a-hydroxy-decahydroisoquinolin-2-yl)-2-oxoethyl]-5,9-dimethyl-3-(naphthalen-2-yl)-7H-furo[3,2-g]chromen-7-one], in data set [1], the Kd was 0.674 µM and < 1 µM. Also, the “IC50 (cytotoxicity)” value in data set [5] was “no toxicity”.

(Values after publication PMC9503946 (Pharmaceuticals, 2022).)
